System: GBS strains
Experiment: Cell viability by intracellular ATP concentration after penicillin
Assay type: cell-based, Group B Streptococcus
Settings: GBS strain A909 compared to NEM316 and O90R; 100×MIC90 Penicillin G 22 hours
Method: GBS strains were cultured for 18 hours at 37° C. in THB. These cultures were used to inoculate fresh THB and subsequently allowed to grow to exponential phase (OD600 0.25-0.3) at 37° C. One (1) ml of culture was centrifuged at 5,000 g for 4 min. The cell pellet was re-suspended in ATP free water. Cellular ATP was extracted by using trichloroacetic acid (TCA) (5%) for 2 min. and subsequently neutralized with Tris-EDTA-0.1M NaOAc, pH 7.75 to 10×TCA volume. The initial (in.) cellular ATP concentration ([ATP]) was measured using the ENLITEN (Promega) luciferase based reaction kit. THB cultures then treated 100×MIC90 Penicillin G for 22 hours. The experimental (exp.) cellular ATP was extracted and the concentration was measured as stated above. Based on the calculations ([ATP] exp.)/([ATP] in./O.D. in.), differences in viability were equated with the change in [ATP].
(I) Bacterial Strains and Culture Conditions. […] Cell cultures were allowed to re-grow for an additional 24 h at 37° C. before the OD600 was measured. […] The initial (in.) cellular ATP concentration ([ATP]) was measured using the ENLITEN (Promega) luciferase based reaction kit. […] The experimental (exp.) cellular ATP was extracted and the concentration was measured as stated above. […]

Q: How did the “cellular [ATP] content (FIG. 3)” value turn out when `CC1(C)S[C@@H]2[C@H](NC(=O)Cc3ccccc3)C(=O)N2[C@H]1C(=O)O` [Penicillin G] was run?
A: significant lesser [ATP] content
